Values after ≈ are worked out from the molar mass of the structure shown. Read-outs that look alike come from different tables or passages of the source.
How the values were obtained:
[1] = test system: mycoplasma strain no. 8008; test: Mycoplasmas/Inhibitory concentration test, strain 8008; format: cell-based
Description: (§1) The test was carried out on microtiter plates. Series of concentrations of the active compound in 0.01 N soda solution were prepared. The concentrations were from 256 μg/ml to 0.0156 μg/ml.
(§2) 0.5 ml of an active compound solution are placed in each identation in the microtiter plate. To this 0.5 ml of an inoculum of mycoplasmas containing about 10^6 organisms per ml were added.
(§3) The inoculum consisted of a modified mycoplasma broth (PPLO) which contained about 20% of horse serum and in which mycoplasmas had been cultured to a titer of about 10^7 organisms per ml (determined by the MacCrady method).
(§4) Then the microtiter plate was incubated at 37° C. and the growth determined after 48, 72 and 96 hours. That concentration of active compound, which prevented any increase in the moculated mycoplasmas was taken as the MIC-value.

[2] = test system: mycoplasma strain no. 81115; test: Mycoplasmas/Inhibitory concentration test, strain 81115; format: cell-based
Description: as §1, §2, §3, §4

[3] = test system: mycoplasma strain no. 4587; test: Mycoplasmas/Inhibitory concentration test, strain 4587; format: cell-based
Description: as §1, §2, §3, §4

mycoplasma gallisepticum = test: Treatment of mycoplasmoses in poultry; format: in vivo, chicken; conditions: for clinical symptoms: animals killed 19 days after infection; for Average weight of the animals after 14: after 14 days; for Average weight of the animals after 19: after 19 days; for Average weight of the animals after 0: day 0 (before treatment)
Description: Groups of 40 chicken which were free from mycoplasma gallisepticum and mycoplasma synoviae were infected at the second day after hatching with a pathogenic wild strain of mycoplasma gallisepticum. The treatment began 24 hours after the infection. One group of 40 chickens was not treated and served as a control. The chickens were treated via their drinking water at 5 successive days following the infection. 19 days after the infection the animals were killed, weighed and examined.

[4] = test system: mycoplasmas mycopneumoniae; test: Treatment of mycoplasmoses in pigs; format: in vivo, piglets; conditions: lungs examined on the 34th day
Excerpt: Groups of 5 piglets with an average weight of 25 kg were fed with standard piglet feed from the beginning of the test, to which feed the stated quantities of active compound had been added.
On the 4th day after the beginning of the test, the animals were infected with mycoplasmas mycopneumoniae. As from the 10th day the animals were only given feed not containing any active compound. On the 34th day the animals were killed and the lungs were examined for lesions.

[5] = test system: mycoplasma strain no. 6442; test: Mycoplasmas/Inhibitory concentration test, strain 6442; format: cell-based
Description: as §1, §2, §3, §4

[6] = test system: mycoplasma strain no. 7981; test: Mycoplasmas/Inhibitory concentration test, strain 7981; format: cell-based
Description: as §1, §2, §3, §4

[7] = test system: mycoplasma strain no. 348; test: Mycoplasmas/Inhibitory concentration test, strain 348; format: cell-based; conditions: NO.348, read-out: MIC value, mycoplasma strain no. 348
Description: as §1, §2, §3, §4

[8] = 250 ppm in drinking water, 5 successive days
[9] = NO.8008, series 256 μg/ml to 0.0156 μg/ml, growth after 48, 72 and 96 hours, 37° C., read-out: MIC value, mycoplasma strain no. 8008
[10] = NO.81115, series 256 μg/ml to 0.0156 μg/ml, growth after 48, 72 and 96 hours, 37° C., read-out: MIC value, mycoplasma strain no. 81115
[11] = NO.4587, series 256 μg/ml to 0.0156 μg/ml, growth after 48, 72 and 96 hours, 37° C., read-out: MIC value, mycoplasma strain no. 4587
[12] = NO.6442, series 256 μg/ml to 0.0156 μg/ml, growth after 48, 72 and 96 hours, 37° C., read-out: MIC value, mycoplasma strain no. 6442
[13] = NO.7981, series 256 μg/ml to 0.0156 μg/ml, growth after 48, 72 and 96 hours, 37° C., read-out: MIC value, mycoplasma strain no. 7981
[14] = 500 ppm in drinking water, 5 successive days

CCN1CCN(c2cc3c(cc2F)c(=O)c(C(=O)O)cn3C2CC2)CC1 [Compound I] gave an MIC ([1]; NO.8008, read-out: MIC value, mycoplasma strain no. 8008) of 0.25 µg/mL (≈ 0.696 µM), an MIC ([2]; NO.81115, read-out: MIC value, mycoplasma strain no. 81115) of 0.5 µg/mL (≈ 1.39 µM) and an MIC ([3]; NO.4587, read-out: MIC value, mycoplasma strain no. 4587) of 0.5 µg/mL (≈ 1.39 µM). For the same molecule, the clinical symptoms (mycoplasma gallisepticum; [8]) was “none”, the “Average weight of the animals after 14” value (mycoplasma gallisepticum; [8]) was 355.7 and the “Average weight of the animals after 19” value (mycoplasma gallisepticum; [8]) was 463.8. The “Average weight of the animals after 0” value (mycoplasma gallisepticum; 250 ppm in drinking water) was 47.3, the “result (lung lesions)” value ([4]; 50 mg/kg in the feed) was “no lesions” and the “result (lung lesions)” value ([4]; 100 mg/kg in the feed) was “no lesions”. The MIC ([5]; NO.6442, read-out: MIC value, mycoplasma strain no. 6442) was 0.15 µg/mL (≈ 0.417 µM), the MIC ([6]; NO.7981, read-out: MIC value, mycoplasma strain no. 7981) was 0.5 µg/mL (≈ 1.39 µM) and the MIC [7] was 0.5 µg/mL (≈ 1.39 µM).
In the case of C=C[C@]1(C)C[C@@H](OC(=O)CSCCN(CC)CC)[C@]2(C)[C@H](C)CC[C@]3(CCC(=O)[C@H]32)[C@@H](C)[C@@H]1O [Tiamulin], the “result (lung lesions)” value ([4]; 200 mg/kg in the feed, control 10%) is reported as 5%.
Work on CC1CCc2cc(F)cc3c(=O)c(C(=O)O)cn1c23 (stereo not drawn) [flumequine] yielded an MIC [1, 9] of 256 µg/mL (≈ 980 µM), an MIC [2, 10] of 256 µg/mL (≈ 980 µM) and an MIC [3, 11] of 256 µg/mL (≈ 980 µM). For the same molecule, the MIC [5, 12] was 256 µg/mL (≈ 980 µM), the MIC [6, 13] was 256 µg/mL (≈ 980 µM) and the MIC [7] was 256 µg/mL (≈ 980 µM).
With CCn1cc(C(=O)O)c(=O)c2ccc(C)nc21 [nalidixic acid] the MIC [1, 9] was 128 µg/mL (≈ 551 µM), the MIC [2, 10] was 128 µg/mL (≈ 551 µM) and the MIC [3, 11] was 128 µg/mL (≈ 551 µM). It also gave an MIC [5, 12] of 128 µg/mL (≈ 551 µM), an MIC [6, 13] of 128 µg/mL (≈ 551 µM) and an MIC [7] of 128 µg/mL (≈ 551 µM).
With Tylocin the clinical symptoms (mycoplasma gallisepticum; [14]) was “clearly noticeable”, the “animals dead (clinical symptoms)” value (mycoplasma gallisepticum; 500 ppm in drinking water, 5 successive days, groups of 40 chickens) was “no animals dead” and the “Average weight of the animals after 14” value (mycoplasma gallisepticum; [14]) was 311.9. The “Average weight of the animals after 19” value (mycoplasma gallisepticum; [14]) was 426.3 and the “Average weight of the animals after 0” value (mycoplasma gallisepticum; 500 ppm in drinking water) was 48.4.

Reference: patent US5145853A, “Bactericidal formulations for use in veterinary medicine” (Bayer Aktiengesellschaft, priority 1985, dated 1992)
